Among the data in patent US20240150293A1, “SPIROCYCLOHEXANE DERIVATIVES, PHARMACEUTICAL COMPOSITIONS CONTAINING THEM AND THEIR USES AS ANTI-APOPTOTIC INHIBITORS” (LES LABORATOIRES SERVIER, priority 2021, published 2024) are IC50 and Ki values, retold here.

For one test, the system named is NCI-H929 cell lines. Nature of the test: In vitro cytotoxicity, CellTiter-Glo (CTG) assay (Example B, Method B). The format is cell-based. As to conditions: Homo sapiens, NCI-H929, 48 h, NCI-H929 cells, 48 h incubation, read-out: C50. In a few lines:
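ATP-based luminescence (CellTiter-Glo) after 48 h incubation at 37° C., 5% CO2 gave NCI-H929 viability. Eleven concentrations tested, highest final 30 μM, dispensed acoustically from 10 mM DMSO stocks; C50 defined as concentration reaching 50% viability.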

In test [1] the target is Cy5-labelled Mcl1 (amino acids 171-321) C286S protein (UniProtKB Q07820) (Homo sapiens (Human), UniProt Q07820, C286S). The test can be described thus: Inhibition of Mcl-1 by the fluorescence quenching assay (Example A, Method B). The format is binding. In a few lines:
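Eleven-point compound series incubated 2 h at room temperature with 1 nM Cy5-tagged protein and quencher-labelled PUMA peptide at 10, 20 or 400 nM in HEPES/NaCl/Tween 20, pH 7.4, 5% DMSO. IC50 for 50% fluorescence increase by 4-parameter fit, then Ki derived (complete cKi or estimated eKi).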

Sequence of Cy5-labelled Mcl1 (amino acids 171-321) C286S protein (Q07820 171-321 C286S): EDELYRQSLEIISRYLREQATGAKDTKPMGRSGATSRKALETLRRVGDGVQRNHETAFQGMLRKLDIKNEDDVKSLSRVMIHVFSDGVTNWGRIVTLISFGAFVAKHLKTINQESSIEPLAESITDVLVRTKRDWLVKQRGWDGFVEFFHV

One may read the Ki as the equilibrium dissociation constant of an inhibitor or competing ligand from its target. On to `C[C@@H](COc1ccnc2c1[C@H](C)CCC2)C[C@H]1Cc2ccc(OC3CCCC3)cc2[C@]12CC[C@@](Nc1cccc(Cl)c1)(C(=O)O)CC2` [Example 789, (1r,2′S,4S)-4-(3-chloroanilino)-6′-(cyclopentyloxy)-2′-[(2R)-2-methyl-3-{[(5R)-5-methyl-5,6,7,8-tetrahydroquinolin-4-yl]oxy}propyl]-2′,3′-dihydrospiro[cyclohexane-1,1′-indene]-4-carboxylic acid], for which the IC50 in the test with NCI-H929 cell lines worked out at 270 nM. Also, in test [1], the inhibition constant Ki is 0.135 nM.

In the case of `C[C@@H](COc1ccnc2c1[C@H](C)CCC2)C[C@@H]1Cc2ccc(OCC3CC3)cc2[C@]12CC[C@@](Nc1cccc(Cl)c1)(C(=O)O)CC2` [Example 790, (1r,2′R,4R)-4-(3-chloroanilino)-6′-(cyclopropylmethoxy)-2′-[(2R)-2-methyl-3-{[(5R)-5-methyl-5,6,7,8-tetrahydroquinolin-4-yl]oxy}propyl]-2′,3′-dihydrospiro[cyclohexane-1,1′-indene]-4-carboxylic acid], the IC50 in the test on NCI-H929 cell lines amounted to 1460 nM. Besides, in test [1], the Ki was 0.764 nM.

Take `C[C@@H](COc1ccnc2c1[C@H](C)CCC2)C[C@H]1Cc2ccc(OCC3CC3)cc2[C@]12CC[C@@](Nc1cccc(Cl)c1)(C(=O)O)CC2` [Example 791, (1r,2′S,4S)-4-(3-chloroanilino)-6′-(cyclopropylmethoxy)-2′-[(2R)-2-methyl-3-{[(5R)-5-methyl-5,6,7,8-tetrahydroquinolin-4-yl]oxy}propyl]-2′,3′-dihydrospiro[cyclohexane-1,1′-indene]-4-carboxylic acid]: the IC50 with NCI-H929 cell lines stood at 192 nM. Besides, in test [1], the Ki stood at 0.124 nM.

Take `C[C@@H](COc1ccnc2c1[C@H](C)CCC2)C[C@H]1Cc2ccc(OCC(F)(F)F)cc2[C@]12CC[C@@](Nc1cccc(Cl)c1)(C(=O)O)CC2` [Example 792, (1r,2′S,4S)-4-(3-chloroanilino)-2′-[(2R)-2-methyl-3-{[(5R)-5-methyl-5,6,7,8-tetrahydroquinolin-4-yl]oxy}propyl]-6′-(2,2,2-trifluoroethoxy)-2′,3′-dihydrospiro[cyclohexane-1,1′-indene]-4-carboxylic acid]: in the test with NCI-H929 cell lines, the IC50 was found to be 143 nM. In addition, the Ki in test [1] stood at 0.469 nM.

On to `C[C@@H]1CCCc2nccc(OC[C@@H](C[C@H]3Cc4ccccc4[C@]34CC[C@@](Nc3cccc(Cl)c3)(C(=O)O)CC4)c3ccccc3)c21` [Example 797, (1r,2′S,4S)-4-(3-chloroanilino)-2′-[(2S)-3-{[(5R)-5-methyl-5,6,7,8-tetrahydroquinolin-4-yl]oxy}-2-phenylpropyl]-2′,3′-dihydrospiro[cyclohexane-1,1′-indene]-4-carboxylic acid], for which the IC50 with NCI-H929 cell lines came to 251 nM. Also, the inhibition constant (Ki) in test [1] turned out to be 0.259 nM.

In the case of `COc1cc2c(cc1C)C[C@H](C[C@@H](C)COc1ccnc3c1[C@H](C)CCC3)[C@]21CC[C@](Nc2cccc(Cl)c2)(C(=O)O)CC1` [Example 813, (1r,2′S,4S)-4-(3-chloroanilino)-6′-methoxy-5′-methyl-2′-[(2R)-2-methyl-3-{[(5R)-5-methyl-5,6,7,8-tetrahydroquinolin-4-yl]oxy}propyl]-2′,3′-dihydrospiro[cyclohexane-1,1′-indene]-4-carboxylic acid], the IC50 in the test with NCI-H929 cell lines is 184 nM. For the same compound, the Ki in test [1] amounted to 0.0908 nM.

Take `CCOc1cc2c(cc1Cl)C[C@H](C[C@@H](C)COc1ccnc3c1[C@H](C)CCC3)[C@]21CC[C@](Nc2cccc(Cl)c2)(C(=O)O)CC1` [Example 816, (1r,2′S,4S)-5′-chloro-4-(3-chloroanilino)-6′-ethoxy-2′-[(2R)-2-methyl-3-{[(5R)-5-methyl-5,6,7,8-tetrahydroquinolin-4-yl]oxy}propyl]-2′,3′-dihydrospiro[cyclohexane-1,1′-indene]-4-carboxylic acid]: the IC50 in the test with NCI-H929 cell lines came out at 101 nM. In addition, the inhibition constant Ki in test [1] turned out to be 0.353 nM.
